In ChEMBL document CHEMBL6120987, “Identification of inhibitors targeting the FLT3-ITD mutation through 4D-QSAR, in vitro, and in silico” (Eur J Med Chem, 2025):

What was measured:
MOLM-13 = assay: Antiproliferative activity against FLT3-dependent human MOLM-13 cells expressing FLT3 ITD mutant assessed as reduction in cell viability incubated for 72 hrs by luminescence based assay; type: functional; conditions: MOLM-13, 72 h
[1] = target: T1, Receptor-type tyrosine-protein kinase FLT3 (Homo sapiens, UniProt P36888, ITD); assay: Inhibition of FLT3-ITD mutant (unknown origin) using biotin-tagged TK substrate preincubated for 10 mins followed by substrate and ATP addition and measured after 40 mins by ADP-Glo Kinase Assay
[2] = target: T1, Receptor-type tyrosine-protein kinase FLT3; assay: Inhibition of FLT3-ITD mutant (unknown origin)

T1 sequence (P36888 whole entry, looked up, stated change not applied): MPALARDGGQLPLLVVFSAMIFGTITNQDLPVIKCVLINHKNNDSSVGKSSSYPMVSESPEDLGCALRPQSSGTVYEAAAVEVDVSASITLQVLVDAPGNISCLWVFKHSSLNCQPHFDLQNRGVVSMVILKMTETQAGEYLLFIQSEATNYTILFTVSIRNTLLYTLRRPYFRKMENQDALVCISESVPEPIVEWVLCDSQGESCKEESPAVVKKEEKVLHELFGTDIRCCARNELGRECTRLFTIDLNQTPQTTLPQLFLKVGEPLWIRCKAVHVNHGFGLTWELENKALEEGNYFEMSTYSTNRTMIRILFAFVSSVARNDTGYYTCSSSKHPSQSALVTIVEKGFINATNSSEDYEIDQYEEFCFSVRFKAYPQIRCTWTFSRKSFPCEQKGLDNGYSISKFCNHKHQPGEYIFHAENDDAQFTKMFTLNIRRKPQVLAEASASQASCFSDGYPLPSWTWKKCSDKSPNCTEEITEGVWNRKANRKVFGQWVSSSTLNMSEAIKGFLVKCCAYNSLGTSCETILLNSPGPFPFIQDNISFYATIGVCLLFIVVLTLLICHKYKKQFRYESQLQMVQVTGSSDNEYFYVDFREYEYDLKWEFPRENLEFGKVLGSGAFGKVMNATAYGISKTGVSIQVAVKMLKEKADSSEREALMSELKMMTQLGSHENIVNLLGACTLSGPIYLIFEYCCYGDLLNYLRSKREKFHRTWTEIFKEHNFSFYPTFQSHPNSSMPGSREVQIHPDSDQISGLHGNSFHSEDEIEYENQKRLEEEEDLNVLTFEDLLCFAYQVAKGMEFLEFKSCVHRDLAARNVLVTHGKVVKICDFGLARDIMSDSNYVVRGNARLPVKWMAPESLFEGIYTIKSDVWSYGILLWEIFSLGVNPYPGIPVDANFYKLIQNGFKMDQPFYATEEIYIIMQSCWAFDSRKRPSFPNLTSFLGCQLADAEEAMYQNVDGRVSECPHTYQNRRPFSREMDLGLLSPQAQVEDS

SMILES	IC50 (MOLM-13) [µM]	IC50 [1] [µM]	IC50 [2] [µM]
CCc1nc(C(N)=O)c(Nc2ccc(N3CCN(C(=O)C45CC6CC(CC(C6)C4)C5)CC3)c(OC)c2)nc1NC1CCOCC1	1.34		
CCCCCCCC/C=C\CCCCCCCC(=O)N1CCN(c2ccc(Nc3nc(NC4CCOCC4)c(CC)nc3C(N)=O)cc2OC)CC1	2.44		
CCCCCCCC/C=C\CCCCCCCC(=O)NC1CCN(c2ccc(Nc3nc(NC4CCOCC4)c(CC)nc3C(N)=O)cc2OC)CC1	0.745		
CCc1nc(C(N)=O)c(Nc2ccc(N3CCC(NC(=O)C45CC6CC(CC(C6)C4)C5)CC3)c(OC)c2)nc1NC1CCOCC1	0.992		
COc1cc(N)ccc1N1CCC(N2CCN(C(=O)OC(C)(C)C)CC2)CC1			0.511
CCc1nc(C(N)=O)c(Nc2ccc(N3CCN(C(=O)OC(C)(C)C)CC3)c(OC)c2)nc1NC1CCOCC1			0.37
CCCCCCCC/C=C\CCCCCCCC(=O)N1CCN(C2CCN(c3ccc(Nc4nc(NC5CCOCC5)c(CC)nc4C(N)=O)cc3OC)CC2)CC1	> 10		
CC(C)(C)OC(=O)N1CCNCC1			0.56
CCCCCCCC/C=C\CCCCCCCC(=O)O [OLEIC ACID]			0.511

Second part, the molecule after the results:

IC50 (MOLM-13) [µM]	IC50 [1] [µM]	IC50 [2] [µM]	SMILES
0.0256	0.00212		CCc1nc(C(N)=O)c(Nc2ccc(N3CCC(N4CCN(C(=O)C56C7C8C5C5C6C7C85C(=O)OC)CC4)CC3)c(OC)c2)nc1NC1CCOCC1 (stereo not given)
0.0546	0.00483		CCc1nc(C(N)=O)c(Nc2ccc(N3CCC(N4CCN(C(=O)C5CC6C=CC5C6)CC4)CC3)c(OC)c2)nc1NC1CCOCC1 (stereo not given)
0.147			CCc1nc(C(N)=O)c(Nc2ccc(N3CCC(NC(=O)C4c5ccccc5-c5ccccc54)CC3)c(OC)c2)nc1NC1CCOCC1
0.0874	0.0061		CCc1nc(C(N)=O)c(Nc2ccc(N3CCC(NC(=O)C45C6C7C4C4C5C6C74C(=O)OC)CC3)c(OC)c2)nc1NC1CCOCC1 (stereo not given)
0.154			CCc1nc(C(N)=O)c(Nc2ccc(N3CCC(N4CCN(C(=O)C5c6ccccc6-c6ccccc65)CC4)CC3)c(OC)c2)nc1NC1CCOCC1
0.111			CCc1nc(C(N)=O)c(Nc2ccc(N3CCN(C(=O)C45C6C7C4C4C5C6C74C(=O)OC)CC3)c(OC)c2)nc1NC1CCOCC1 (stereo not given)
0.055	0.00306		CCc1nc(C(N)=O)c(Nc2ccc(N3CCC(NC(=O)C4CC5C=CC4C5)CC3)c(OC)c2)nc1NC1CCOCC1 (stereo not given)
0.188			CCc1nc(C(N)=O)c(Nc2ccc(N3CCC(N4CCN(C(=O)C56CC7CC(CC(C7)C5)C6)CC4)CC3)c(OC)c2)nc1NC1CCOCC1
0.0634	0.00129		CCc1nc(C(N)=O)c(Nc2ccc(N3CCN(C(=O)C4CC5C=CC4C5)CC3)c(OC)c2)nc1NC1CCOCC1 (stereo not given)
0.142			CCc1nc(C(N)=O)c(Nc2ccc(N3CCN(C(=O)C4c5ccccc5-c5ccccc54)CC3)c(OC)c2)nc1NC1CCOCC1
0.0224			CCc1nc(C(N)=O)c(Nc2ccc(N3CCC(N4CCN(C)CC4)CC3)c(OC)c2)nc1NC1CCOCC1 [GILTERITINIB]
